From patent publication US20030181436A1, “Treatment for AIDS, HIV, and other related diseases and compounds for use therewith” (priority 2001, published 2003)

Key:
[1] = system: TNFα induced U1 cells (HIV IIIB provirus); experiment: U1 latent infection assay, supernatant reverse transcriptase activity; assay type: cell-based; settings: for % VC / RT ACTIVITY (cpm) MEAN: exp 2; for RT VALUES (cpm) MEAN / X VC: exp 1
Procedure: U1 and ACH-2 cells were obtained from the AIDS Research and Reference Reagent Program and maintained under standard culture conditions in RPMI 1640 supplemented with 10% fetal bovine serum (heat inactivated), supplemented with 2 mM […], 100U/ml penicillin and 100 μg/ml, streptomycin. U1 cells were derived from the histocytic leukemia cell line U937, and contain a single integrated copy (HIV IIIB) […] a cytokine and/or phorbol inducible provirus. ACH-2 cells are derived from the A3.01 T lymphoblastic cell line, and contain 2 copies of the HIV IIIB provirus, however only one is cytokine and/or phorbol inducible. Cultures were maintained in such a way as to ensure exponential growth of the populations. At the time of the assay, cells were collected by centrifugation and counted by hemacytometer. If cell viability by Trypan Blue dye exclusion was less than 70% the assay was terminated. The cells were adjusted to 5×10^4 cells/mL and 100 μL, placed in 96 well plates with 100 μL media containing a final concentration of […] TNFα and the test compound. Cultures were incubated for 3 days and supernatants harvested. Compound toxicity was determined by MTS dye reduction. Virus expression was measured by supernatant reverse transcriptasc activity.
Reverse transcriptase activity was measured in cell-free supernatants. Tritiated thymidine triphosphate (NEN) (TTP) was resuspended in distilled H2O at 5 Ci/mL. Poly rA and oligo dT were prepared as a stock solution which was kept at −20° C. The RT reaction buffer was prepared fresh on a daily basis and consists of 125 μL 1.0 M EGTA, 125 μL dH2O, 110 μL 10% SDS, 50 μL 1.0 M Tris (pH 7.4), 50 μL, 1.0 M DTT, and 40 μL 1.0 M MgCl2. These three solutions were mixed together in a ratio of 2 parts TTP, 1 part poly rA:oligo dT, and 1 part reaction buffer. Ten microliters of this reaction mixture was placed in a round bottom microtiter plate and 15 μL of virus containing supernatant was added and mixed. The plate was incubated at 37° C. in a water bath with a solid support to prevent submersion of the plate and incubated for 60 minutes. Following reaction, the reaction volume was spotted onto pieces of DE81 paper, washed 5 times for 5 minutes each in a 5% sodium phosphate buffer, 2 times for 1 minute each in distilled water, 2 times for 1 minute each in 70% ethanol, and then dried. Opti-Fluor O was added to each sample and incorporated radioactivity was quantitated utilizing a Wallac 1450 Microbetaplus liquid scintillation counter.

PBMCs = assay type: cell-based, Human
Procedure: Peripheral blood […] cells (PBMCs) were obtained from normal hepatitis B and C and HIV-1 negative donors by ficoll hypaque gradient separation. Briefly, anti-coagulated blood was diluted 1:1 with Dulbecco's phosphate buffered saline without Ca^+2 and Mg^+@ (PBS) and layered over 14 mL of Lymphocyte separation media in a 50 ml centrifuge tube. Tubes were then centrifuged for 30 minutes at 600×g. Banded PBLs were gently aspirated from the resulting interface and subsequently washed 2× with PBS by low speed centrifugation. The mononuclear cells were counted, viability determined by Trypan Blue dye exclusion and resuspended in RPMI 1640 medium supplemented with 15% FBS (heat inactivated), 2 mM L-glutamine, 100 U/mL penicillin, 100 μg/mL streptomycin, and 10 μg/mL gentamycin with 2 μg/mL phytohemagluttin (PHA) at 1×10^6 cells/mL. The cells were cultured for 48 to 72 h at 37° C., 5%, C^02. Following incubation, cells were collected by centrifugation, washed and resuspended in RPMI 1640 supplemented with 15% FBS (heat inactivated), 2 mM L-glutamine, 100 U/mL penicillin, 100 μg/mL streptomycin, and 10 μg/mL gentamycin with 40 U/mL, recombinant IL-2 (R & D Systems, Minneapolis, Minn.). IL-2 was included in the culture medium to maintain the cell division initiated by the PHA mitogenic stimulation. The cultures were then maintained until use by ½ culture volume change with fresh IL-2 containing medium every 3 days.
Human peripheral blood mononuclear cells from a minimum of 2 donors, that were blasted with PHA and IL-2, were counted, viability determined by Trypan Blue dye exclusion and mixed in equal ratios. Pooled donors were used to minimize the variability observed between individual donors which results from quantitative and qualitative differences in HIV infection and overall response to the PHA and IL-2 of primary lymphocyte populations. […] The assay was incubated for 6 days in a humidified atmosphere at 37° C., 5% CO2, the plates analyzed for cell viability by MTS dye reduction or incorporation of [^3H] metabolite incorporation.
[^3H]Uridine, [^3H] thymidine or [^3H]leucine incorporation were measured in the following manner. […] Incorporation was then determined on a Wallac Microbeta counter following lysis of the cells with H2O and capture on glass fiber filters using a Skatron harvester.
At assay termination the assay plates were stained with the soluble tetrazolium-based dye MTS (CellTiter® Reagent, Promega) to determined cell viability and quantify compound toxicity. MTS is metabolized by the mitochondria enzymes of metabolically active cells to a soluble formazan product, allowing the rapid quantitative analysis cell viability and compound cytotoxicity. […]

Potassium Iodiscorbate [Compound K]
% VC ([1]; 0.00063 μM): 112.6%
RT ACTIVITY (cpm) MEAN ([1]; 0.00063 μM): 3019 cpm
% VC ([1]; 0.002 μM): 118.4%
RT ACTIVITY (cpm) MEAN ([1]; 0.002 μM): 3174 cpm
% VC ([1]; 0.00625 μM): 111.5%
RT ACTIVITY (cpm) MEAN ([1]; 0.00625 μM): 2989 cpm
% VC ([1]; 0.02 μM): 98.4%
RT ACTIVITY (cpm) MEAN ([1]; 0.02 μM): 2640 cpm
% VC ([1]; 0.0625 μM): 107.1%
RT ACTIVITY (cpm) MEAN ([1]; 0.0625 μM): 2872 cpm
% VC ([1]; 0.2 μM): 110.0%
RT ACTIVITY (cpm) MEAN ([1]; 0.2 μM): 2949 cpm
% VC ([1]; 0.625 μM): 68.1%
RT ACTIVITY (cpm) MEAN ([1]; 0.625 μM): 1826 cpm
% VC ([1]; 2 μM): 81.7%
RT ACTIVITY (cpm) MEAN ([1]; 2 μM): 2191 cpm
% VC ([1]; 6.25 μM): 73.2%
RT ACTIVITY (cpm) MEAN ([1]; 6.25 μM): 1962 cpm
% VC ([1]; 20 μM): 45.3%
RT ACTIVITY (cpm) MEAN ([1]; 20 μM): 1216 cpm
% VC ([1]; 62.5 μM): 29.07%
RT ACTIVITY (cpm) MEAN ([1]; 62.5 μM): 779 cpm
% VC ([1]; 200 μM): 17.50%
RT ACTIVITY (cpm) MEAN ([1]; 200 μM): 469 cpm
TC50 in PBMCs by MTS (PBMCs): 499 µg/mL
non-toxic to PBMCs at concentrations (PBMCs): above 400 μg/ml
protein (leucine incorporation) and RNA (uridine incorporation) production start to drop (PBMCs): above 32 μg/ml

Zinc Iodiscorbate [Compound Z]
activity in the U1 assay [1]: inactive
% VC ([1]; 0.00063 ug/ml): 110.1%
% VC ([1]; 0.002 ug/ml): 105.4%
RT ACTIVITY (cpm) MEAN ([1]; 0.002 ug/ml): 3245 cpm
% VC ([1]; 0.00625 ug/ml): 99.9%
RT ACTIVITY (cpm) MEAN ([1]; 0.00625 ug/ml): 3077 cpm
% VC ([1]; 0.02 ug/ml): 94.2%
RT ACTIVITY (cpm) MEAN ([1]; 0.02 ug/ml): 2902 cpm
% VC ([1]; 0.0625 ug/ml): 93.9%
RT ACTIVITY (cpm) MEAN ([1]; 0.0625 ug/ml): 2891 cpm
% VC ([1]; 0.2 ug/ml): 101.2%
RT ACTIVITY (cpm) MEAN ([1]; 0.2 ug/ml): 3115 cpm
RT VALUES (cpm) MEAN ([1]; 0.625 ug/ml): 2504.7 cpm
X VC ([1]; 0.625 ug/ml): 106.3
% VC ([1]; 0.625 ug/ml): 64.4%
RT ACTIVITY (cpm) MEAN ([1]; 0.625 ug/ml): 1984 cpm
RT VALUES (cpm) MEAN ([1]; 2 ug/ml): 2492.7 cpm
X VC ([1]; 2 ug/ml): 105.8
% VC ([1]; 2 ug/ml): 59.7%
RT ACTIVITY (cpm) MEAN ([1]; 2 ug/ml): 1838 cpm
RT VALUES (cpm) MEAN ([1]; 6.25 ug/ml): 2813.0 cpm
X VC ([1]; 6.25 ug/ml): 119.4
% VC ([1]; 6.25 ug/ml): 66.9%
RT ACTIVITY (cpm) MEAN ([1]; 6.25 ug/ml): 2059 cpm
RT VALUES (cpm) MEAN ([1]; 20 ug/ml): 2385.7 cpm
X VC ([1]; 20 ug/ml): 101.2
% VC ([1]; 20 ug/ml): 63.2%
RT ACTIVITY (cpm) MEAN ([1]; 20 ug/ml): 1947 cpm
RT VALUES (cpm) MEAN ([1]; 62.5 ug/ml): 2253.7 cpm
X VC ([1]; 62.5 ug/ml): 95.6
% VC ([1]; 62.5 ug/ml): 39.78%
RT ACTIVITY (cpm) MEAN ([1]; 62.5 ug/ml): 1225 cpm
RT VALUES (cpm) MEAN ([1]; 200 ug/ml): 802.7 cpm
X VC ([1]; 200 ug/ml): 34.1
% VC ([1]; 200 ug/ml): 30.84%
RT ACTIVITY (cpm) MEAN ([1]; 200 ug/ml): 950 cpm
IC50 ([1]; U1, exp 2, Table 8): IC50 (uglml) = 43.99
IC50 ([1]; U1, experiment 1, Table 1): 164 µg/mL
IC50 ([1]; U1, experiment 2, Table 1): 44 µg/mL
IC50 ([1]; U1/TNFα, exp 1, Table 3): IC50 (ug/ml) = ..164.40
U1 EC50 ([1]; exp 2, Table 4): 44.0 µg/mL
non-toxic to PBMCs at concentrations (PBMCs): above 400 μg/ml
